From ChEMBL document CHEMBL1151900, “Steroidal bivalent ligands for the estrogen receptor: design, synthesis, characterization and binding affinities” (Bioorg Med Chem, 2009)

Legend:
[1] = biological target: Estrogen receptor beta (Homo sapiens) (UniProt Q92731); experiment: Displacement of [3H]estradiol from full-length human estrogen receptor beta by radiometric assay relative to estradiol
[2] = biological target: T1, Estrogen receptor (Homo sapiens) (UniProt P03372); experiment: Displacement of [3H]estradiol from full-length human estrogen receptor alpha by radiometric assay relative to estradiol
T1 sequence (whole entry): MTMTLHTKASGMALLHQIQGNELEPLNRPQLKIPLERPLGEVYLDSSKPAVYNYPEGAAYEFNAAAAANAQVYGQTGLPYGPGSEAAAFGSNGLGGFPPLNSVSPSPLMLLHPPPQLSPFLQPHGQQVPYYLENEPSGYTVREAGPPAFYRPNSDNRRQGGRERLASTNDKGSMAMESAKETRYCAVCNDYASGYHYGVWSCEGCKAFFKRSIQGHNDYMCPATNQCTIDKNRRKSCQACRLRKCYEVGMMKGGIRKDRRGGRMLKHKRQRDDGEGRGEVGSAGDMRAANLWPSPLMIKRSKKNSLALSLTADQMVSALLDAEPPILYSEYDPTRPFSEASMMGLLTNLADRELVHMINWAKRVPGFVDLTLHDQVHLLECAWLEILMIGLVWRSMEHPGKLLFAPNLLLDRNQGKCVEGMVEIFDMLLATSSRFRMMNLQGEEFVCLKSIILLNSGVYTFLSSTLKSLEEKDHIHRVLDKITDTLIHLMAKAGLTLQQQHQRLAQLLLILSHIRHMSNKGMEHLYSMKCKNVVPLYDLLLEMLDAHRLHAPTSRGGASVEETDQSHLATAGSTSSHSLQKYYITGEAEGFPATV

Sequence of Estrogen receptor beta (Homo sapiens) (Q92731 whole entry): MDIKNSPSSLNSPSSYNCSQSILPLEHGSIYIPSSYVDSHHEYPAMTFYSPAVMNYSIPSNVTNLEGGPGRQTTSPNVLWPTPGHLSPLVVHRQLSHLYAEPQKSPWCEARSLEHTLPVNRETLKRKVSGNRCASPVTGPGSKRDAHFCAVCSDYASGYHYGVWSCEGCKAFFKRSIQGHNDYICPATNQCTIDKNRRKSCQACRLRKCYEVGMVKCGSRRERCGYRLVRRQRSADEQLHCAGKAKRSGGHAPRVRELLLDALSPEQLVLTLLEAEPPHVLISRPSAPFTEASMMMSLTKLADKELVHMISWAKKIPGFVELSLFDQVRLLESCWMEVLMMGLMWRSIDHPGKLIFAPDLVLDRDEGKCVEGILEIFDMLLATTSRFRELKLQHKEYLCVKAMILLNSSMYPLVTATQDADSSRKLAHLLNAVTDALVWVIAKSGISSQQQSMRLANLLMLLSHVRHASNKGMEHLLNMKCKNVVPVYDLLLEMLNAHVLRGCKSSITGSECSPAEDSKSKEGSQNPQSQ

RBA [1] | RBA [2] | SMILES
0.003% | 6.9% | C[C@]12CC[C@@H]3c4ccc(O)cc4CC[C@H]3[C@@H]1CC[C@@]2(O)C#Cc1ccc(OCCCOCCCOCCCOCCCOc2ccc(C#C[C@]3(O)CC[C@H]4[C@@H]5CCc6cc(O)ccc6[C@H]5CC[C@@]43C)cc2)cc1
0.22% | 1.6% | C[C@]12CC[C@@H]3c4ccc(O)cc4CC[C@H]3[C@@H]1CC[C@@]2(O)C#Cc1ccc(OCCCCOCCCCOCCCCOCCCCOCCCOc2ccc(C#C[C@]3(O)CC[C@H]4[C@@H]5CCc6cc(O)ccc6[C@H]5CC[C@@]43C)cc2)cc1
0.69% | 2.3% | C[C@]12CC[C@@H]3c4ccc(O)cc4CC[C@H]3[C@@H]1CC[C@@]2(O)C#Cc1ccc(OCCCOCCCOCCCOCCCOCCCOc2ccc(C#C[C@]3(O)CC[C@H]4[C@@H]5CCc6cc(O)ccc6[C@H]5CC[C@@]43C)cc2)cc1
3.6% | 6.8% | C[C@]12CC[C@@H]3c4ccc(O)cc4CC[C@H]3[C@@H]1CC[C@@]2(O)C#Cc1ccc(CNCCOCCOCCOCCOCCOCCNCc2ccc(C#C[C@]3(O)CC[C@H]4[C@@H]5CCc6cc(O)ccc6[C@H]5CC[C@@]43C)cc2)cc1
1.5% | 4.5% | C[C@]12CC[C@@H]3c4ccc(O)cc4CC[C@H]3[C@@H]1CC[C@@]2(O)C#Cc1ccc(OCCCCOCCCCOCCCCOc2ccc(C#C[C@]3(O)CC[C@H]4[C@@H]5CCc6cc(O)ccc6[C@H]5CC[C@@]43C)cc2)cc1
0.53% | 2.1% | C[C@]12CC[C@@H]3c4ccc(O)cc4CC[C@H]3[C@@H]1CC[C@@]2(O)C#Cc1ccc(OCCCOCCCOCCCOc2ccc(C#C[C@]3(O)CC[C@H]4[C@@H]5CCc6cc(O)ccc6[C@H]5CC[C@@]43C)cc2)cc1
0.68% | 1.2% | C[C@]12CC[C@@H]3c4ccc(O)cc4CC[C@H]3[C@@H]1CC[C@@]2(O)C#Cc1ccc(OCCOCCOCCOCCOCCOCCOc2ccc(C#C[C@]3(O)CC[C@H]4[C@@H]5CCc6cc(O)ccc6[C@H]5CC[C@@]43C)cc2)cc1
0.38% | 1.5% | C[C@]12CC[C@@H]3c4ccc(O)cc4CC[C@H]3[C@@H]1CC[C@@]2(O)C#Cc1ccc(OCCCOCCCOCCCOCCCOCCCOCCCOc2ccc(C#C[C@]3(O)CC[C@H]4[C@@H]5CCc6cc(O)ccc6[C@H]5CC[C@@]43C)cc2)cc1
0.76% | 2.6% | C[C@]12CC[C@@H]3c4ccc(O)cc4CC[C@H]3[C@@H]1CC[C@@]2(O)C#Cc1ccc(OCCCCOCCCCOCCCCOCCCCOc2ccc(C#C[C@]3(O)CC[C@H]4[C@@H]5CCc6cc(O)ccc6[C@H]5CC[C@@]43C)cc2)cc1
0.82% | 1.8% | C[C@]12CC[C@@H]3c4ccc(O)cc4CC[C@H]3[C@@H]1CC[C@@]2(O)C#Cc1ccc(OCCCCOCCCCOc2ccc(C#C[C@]3(O)CC[C@H]4[C@@H]5CCc6cc(O)ccc6[C@H]5CC[C@@]43C)cc2)cc1
0.38% | 0.9% | C[C@]12CC[C@@H]3c4ccc(O)cc4CC[C@H]3[C@@H]1CC[C@@]2(O)C#Cc1ccc(OCCCOCCCOc2ccc(C#C[C@]3(O)CC[C@H]4[C@@H]5CCc6cc(O)ccc6[C@H]5CC[C@@]43C)cc2)cc1
